Assays:
Δ148TDP1 = biological target: T1, Δ148TDP1 (Homo sapiens, UniProt Q9NUW8); assay: real-time fluorimetric assay with FAM/BHQ1 oligonucleotide; format: biochemical
T1 construct: gene TDP1; Δ148TDP1, truncated form lacking the first 148 N-terminal amino acid residues (recombinant from E. coli)

[1] = biological target: T2, Tyrosyl-DNA phosphodiesterase 1 (TDP1) (Homo sapiens, UniProt Q9NUW8); assay: real-time fluorimetric assay with FAM/BHQ1 oligonucleotide; V(S) kinetics; EMSA and fluorescence anisotropy show no DNA competition; format: biochemical
T2 construct: TDP1 wild type (full-length, recombinant from E. coli, pLate31-TDP1)

TDP1 (wild type) = TDP1 (wild type) (Homo sapiens, UniProt Q9NUW8 1-608); assay: EMSA; no inhibitor; 0.5 uM TDP1, 0.1 uM DNA; two complexes (1:1 and 2:1); 50 mM Tris-HCl pH 8.0, 50 mM NaCl, 7 mM beta-mercaptoethanol; EMSA 10 min at 4 C, 5% PAGE in 0.3x TBE; anisotropy temperature not stated; conditions: protein: recombinant; label: 5'-(5,6)-FAM; single strand
Chain of TDP1 (wild type) (Q9NUW8 whole entry): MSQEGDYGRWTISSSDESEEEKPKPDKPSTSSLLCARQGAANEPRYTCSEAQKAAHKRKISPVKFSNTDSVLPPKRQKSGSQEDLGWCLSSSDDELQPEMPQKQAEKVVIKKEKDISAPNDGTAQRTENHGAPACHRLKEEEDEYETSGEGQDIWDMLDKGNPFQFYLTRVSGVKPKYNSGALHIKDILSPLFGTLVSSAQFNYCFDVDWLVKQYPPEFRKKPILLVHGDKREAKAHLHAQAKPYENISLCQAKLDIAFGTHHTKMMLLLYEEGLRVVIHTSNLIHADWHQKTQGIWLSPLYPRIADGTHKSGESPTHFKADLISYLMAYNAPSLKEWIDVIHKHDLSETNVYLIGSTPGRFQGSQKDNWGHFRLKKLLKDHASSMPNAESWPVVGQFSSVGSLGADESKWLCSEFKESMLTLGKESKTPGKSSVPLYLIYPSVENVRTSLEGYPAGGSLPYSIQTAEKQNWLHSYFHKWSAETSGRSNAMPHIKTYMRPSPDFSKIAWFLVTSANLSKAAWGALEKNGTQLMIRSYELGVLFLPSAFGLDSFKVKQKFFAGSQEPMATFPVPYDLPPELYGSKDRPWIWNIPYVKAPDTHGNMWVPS

T2 sequence (Q9NUW8 whole entry): as above
T1 sequence (Q9NUW8 149-608, stated change not applied): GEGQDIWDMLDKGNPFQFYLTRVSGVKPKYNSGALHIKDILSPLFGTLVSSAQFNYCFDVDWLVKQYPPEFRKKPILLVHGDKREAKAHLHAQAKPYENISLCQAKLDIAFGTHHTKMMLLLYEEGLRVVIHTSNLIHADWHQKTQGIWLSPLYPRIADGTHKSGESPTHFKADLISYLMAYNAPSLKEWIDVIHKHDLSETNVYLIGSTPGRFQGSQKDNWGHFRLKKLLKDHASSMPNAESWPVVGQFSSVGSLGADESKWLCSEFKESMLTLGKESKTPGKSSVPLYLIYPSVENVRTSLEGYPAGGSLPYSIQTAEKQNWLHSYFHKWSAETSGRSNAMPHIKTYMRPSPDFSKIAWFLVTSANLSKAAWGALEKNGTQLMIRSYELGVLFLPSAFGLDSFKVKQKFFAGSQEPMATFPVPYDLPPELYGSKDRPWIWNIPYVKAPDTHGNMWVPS

With `CC(=O)c1c(O)c(C)c(O)c2c1OC1=CC(=O)C(=C(C)NCCCc3cc(C(C)(C)C)c(O)c(C(C)(C)C)c3)C(=O)C12C` (stereo not drawn) [OL9-116] the IC50 (Δ148TDP1) was 3.8 ± 0.8 µM and the IC50 [1] was 1.4 ± 0.4 µM.

B1: 5'-FAM 16-mer oligonucleotide (ssDNA)
DNA: AACGTCAGGGTCTTCC
B1: binds (TDP1 (wild type)).

From PMC13114712, “The Influence of TDP1 Inhibitor Usnic Acid Derivative OL9-116 on the Effects of Topotecan in Human Cells” (Current Issues in Molecular Biology, 2026)
